Test results taken from US10638750B2, “Compositions containing a hollow glucan particle or a cell wall particle encapsulating a terpene component, methods of making and using them” (Eden Research PLC, priority 2004, dated 2020).
Like-named read-outs stand apart in the source and are kept apart here.

Experiments:
Saccharomyces cerevisiae = Saccharomyces cerevisiae MIC assays comparing free terpene emulsions with yeast-encapsulated terpenes; assay type: cell-based; conditions: free terpene emulsion; for Cidal MIC Free terpene emulsions: re-incubation in fresh medium
Method: One column was designated as a cell-only control and no terpene was added to these wells. Serial 2-fold dilutions were performed by transferring 100 μL from one row to the next a total of 7 times. […] Microtitre plates were incubated statically overnight at 30° C. […] Growth inhibition was visually confirmed by microscopy. For the free terpene emulsions, once the MIC had been determined for each formulation, the microtitre plates were centrifuged and the spent medium was removed from the growth-inhibited wells. The cells were resuspended in fresh medium (100 μL) and the plates were re-incubated overnight at 30° C. Assessment of growth inhibition was performed as before.

S. aureus = assay: MIC of terpene emulsions and fresh or freeze-dried Baker's YP and SAF Mannan encapsulated terpenes; assay type: cell-based; conditions: for MIC: Staphylococcus aureus
Method: The results of a protocol performed to compare the MIC of fresh versus freeze dried hollow glucan particle encapsulated terpene formulations are shown below in Table 13. A simple terpene emulsion was also tested and the results are shown for comparison.

[1] = Terpene stability by formation of a yellow colored oxidation product of citral; assay type: physicochemical
E. coli = conditions: cited from earlier work
[2] = Citral solution and stable suspension limits; assay type: physicochemical
H. pylori = conditions: in vitro; cited from earlier work
[3] = encapsulated in Baker's YP, freeze dried, read-out: MIC μg/ml terpene, Bakers Freeze Dried
[4] = encapsulated in Baker's YP, fresh, read-out: MIC μg/ml terpene, Bakers Fresh
[5] = encapsulated in SAF Mannan, freeze dried, read-out: MIC μg/ml terpene, SAF Mannan Freeze Dried
[6] = encapsulated in SAF Mannan, fresh, read-out: MIC μg/ml terpene, SAF Mannan Fresh
[7] = terpene emulsion, not encapsulated, read-out: MIC μg/ml terpene, Emulsion

Molecule | MIC Free terpene emulsions (Saccharomyces cerevisiae) | Cidal MIC Free terpene emulsions (Saccharomyces cerevisiae) | MIC (S. aureus; [3]) | MIC (S. aureus; [4]) | MIC (S. aureus; [5]) | MIC (S. aureus; [6]) | MIC (S. aureus; [7]) | further results
C=CCc1ccc(O)c(OC)c1 [E (2)] | 125 ppm | 250 ppm |  |  |  |  |  | 
Cc1ccc(C(C)C)c(O)c1 [T (3)] | 125 ppm | 250 ppm |  |  |  |  |  | 
C=CCc1ccc(O)c(OC)c1 [Eugenol, eugenol] |  |  | 0.05 µg/mL | 0.03 µg/mL | 0.05 µg/mL | 0.01 µg/mL | 0.12 µg/mL | 
CC(C)=CCC/C(C)=C/CO [G (1)] | 250 ppm | 250 ppm |  |  |  |  |  | 
C=C(C)[C@@H]1CC=C(C)C(=O)C1 [L (5)] | 250 ppm | 500 ppm |  |  |  |  |  | 
CC(C)=CCCC(C)=CC=O [Citral, 3,7-dimethyl-2,6-octadien-1-al] |  |  | 0.05 µg/mL | 0.01 µg/mL | > 0.03 µg/mL | 0.01 µg/mL | 0.94 µg/mL | yellow color (citral oxidation product) over time ([1]; aqueous emulsion): turned a progressively increasing yellow color over time; yellow color (citral oxidation product) over time ([1]; encapsulated in Bakers YP): turned a progressively increasing yellow color over time; citral stability (yellow color over time) ([1]; encapsulated in SAF Mannan): increased citral stability; citral stability (absence of yellow colour) ([1]; loaded in SAF Mannan, after 24 hours at 37° C.): remains stable; concentration in growth media that reduced the concentration of E. coli (E. coli): more than 0.01%; concentration with bactericidal effect (E. coli): 0.08%; concentration up to which a solution can be made [2]: about 500 ppm; concentration up to which a stable suspension can be formed [2]: about 2500 ppm
CC(C)=CCCC(C)=CC=O (mixture of isomers) [C (4)] | 125 ppm | 250 ppm |  |  |  |  |  | 
L-carvone |  |  |  |  |  |  |  | MIC μg/ml terpene, Bakers Freeze Dried (S. aureus; encapsulated in Baker's YP, freeze dried): >0.04 µg/mL; MIC μg/ml terpene, Bakers Fresh (S. aureus; encapsulated in Baker's YP, fresh): 0.1 µg/mL; MIC μg/ml terpene, SAF Mannan Freeze Dried (S. aureus; encapsulated in SAF Mannan, freeze dried): >0.02 µg/mL; MIC μg/ml terpene, SAF Mannan Fresh (S. aureus; encapsulated in SAF Mannan, fresh): 0.01 µg/mL; MIC μg/ml terpene, Emulsion (S. aureus; terpene emulsion, not encapsulated): 3.75 µg/mL
CC(C)=CCC/C(C)=C/CO [Geraniol, geraniol] |  |  | 0.06 µg/mL | 0.03 µg/mL | > 0.03 µg/mL | 0.02 µg/mL | 0.47 µg/mL | concentration that inhibited the growth of H. pylori (H. pylori): 2 mg/L
